The text below walks through data of publication PMC9246096, “Structure-activity relationship studies for inhibitors for vancomycin-resistant Enterococcus and human carbonic anhydrases” (Journal of Enzyme Inhibition and Medicinal Chemistry, 2022).

pKi: −log10 of the molar value. In brackets after ≈: the same amount, converted by molar mass. Several values for one entry are separate records, joined by “and”; a condition that tells them apart may be missing. Identical values can stand only once. Like-named read-outs stand apart in the source and are kept apart here.

The target of assay [1] is human CA I (hCAI). Set-up: method as in PMID 24316122. Particulars: previously reported; read-out: Ki hCA I; cited from earlier work.
The target of assay [2] is E. faecium γ-CA (Efγ-CA) (Enterococcus faecium, UniProt Q3XX77). In words: biochemical. It is filed as biochemical. As to the method: (§1) Both Efα-CA and Efγ-CA were recombinantly expressed and purified as follows. A pHis2 plasmid (GenScript) containing either the Efα-CA sequence or Efγ-CA sequence was used for the expression of hexa-histidine tagged protein in a bacterial culture. […] Starter cultures were grown at 37 °C with shaking at 225 rpm overnight. One litre of autoclaved Luria-Bertani broth containing 100 µg/mL ampicillin and 1 mM ZiCl2 was inoculated with a 10-ml aliquot of the starter culture and grown at 37 °C with shaking at 225 rpm to an OD of 0.8 before being cold shocked and induced with 500 µL of IPTG (1 M). The induced cultures were grown for 16 h at 17 °C with shaking at 225 rpm. Bacterial cell pellets were spun down at 4000 g for 20 min and resuspended in 1× PBS containing 0.5 mM TCEP, 5% glycerol, pH = 7.4 to which 5 mg lysozyme was added to aid in lysis. The resuspended bacterial cells were incubated on ice for 20 min and then lysed via sonication. Lysed bacterial cells were pelleted by centrifugation at 14,000 g for 1 h to remove cellular debris, and the supernatant was loaded onto a nickel-NTA column equilibrated with 1x PBS containing 0.5 mM TCEP, 5% glycerol, pH = 7.4. Once flowthrough was collected, the protein was eluted using a 0–500 mM imidazole stepwise gradient in the same equilibration buffer, and fractions were collected. Fractions that contained the desired protein, as determined by SDS-PAGE, were combined and subjected to TEV protease for His-tag cleavage. After the addition of TEV, the protein was dialysed for 4 h against 1× PBS containing 0.5 mM TCEP, 5% glycerol, pH = 7.4. The dialysed protein solution was loaded back onto a nickel-NTA column equilibrated with 1x PBS containing 0.5 mM TCEP, 5% glycerol, pH = 7.4 for the subtraction of TEV followed by its elution with the same buffer containing 500 mM imidazole. The protein eluted prior to the imidazole was concentrated using Amicon Ultra Centrifugal Filters and purified by size-exclusion chromatography (SEC) on an S100 column using running buffer 1x PBS containing 0.5 mM TCEP, 5% glycerol, pH = 7.4. Fractions that contained the protein of interest as confirmed by SDS-PAGE were concentrated, flash frozen, and placed in −80 °C for future use.
Chain of E. faecium γ-CA (Efγ-CA) (Q3XX77 entry or part of it): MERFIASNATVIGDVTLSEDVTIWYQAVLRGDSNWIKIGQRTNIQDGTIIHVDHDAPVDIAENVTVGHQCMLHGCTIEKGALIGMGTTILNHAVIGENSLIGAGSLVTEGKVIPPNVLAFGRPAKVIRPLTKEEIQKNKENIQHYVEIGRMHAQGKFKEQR
(§2) The assay was performed according to previously published protocols. Recombinant Efα-CA and Efγ-CA was obtained as described above and hCA I and hCA II were purchased from Millipore Sigma (hCA I Catalog# C4396-5MG; hCA II Catalog #C6624-500UG). Ki values were determined from inputting the IC50 values into the Cheng–Prusoff equation[25] for Ki from catalytic inhibition constants.

Assay [3] concerns the target human CA II (hCAII). More on the design: method as in PMID 24316122. The conditions noted are these: previously reported; read-out: Ki hCA II; cited from earlier work.
The target in assay [4] is E. faecium α-CA (Efα-CA) (Enterococcus faecium, UniProt Q3XYE8). It is filed as biochemical. As to the method: as §1, §2
Chain of E. faecium α-CA (Efα-CA) (Q3XYE8 entry or part of it): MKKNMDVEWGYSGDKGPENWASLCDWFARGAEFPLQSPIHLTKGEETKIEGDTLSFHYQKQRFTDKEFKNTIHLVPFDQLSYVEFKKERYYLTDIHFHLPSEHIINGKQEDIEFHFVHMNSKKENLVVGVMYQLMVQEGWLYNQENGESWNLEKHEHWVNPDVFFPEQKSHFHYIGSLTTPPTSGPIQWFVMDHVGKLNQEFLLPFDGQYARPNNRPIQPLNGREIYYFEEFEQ
In assay [5] the test system is VRE strains. The conditions noted are these: full data set published by Kaur et al.; cited from earlier work.
Setting [6] is: recombinant Efγ-CA, Ki from IC50 via Cheng–Prusoff, read-out: Ki Efγ-CA.
[7] abbreviates: recombinant Efα-CA; Ki from IC50 via Cheng–Prusoff; read-out: Ki Efα-CA.
The mark [8] stands for this setting: Ki Efγ-CA, recombinant Efγ-CA, Ki from IC50 via Cheng–Prusoff.
[9] abbreviates: read-out: Ki Efα-CA; recombinant Efα-CA; Ki from IC50 via Cheng–Prusoff.

A word on the pKi: it is the Ki on a negative log10 scale, so that one unit is a factor of ten. With `CC(=O)Nc1ncc(S(N)(=O)=O)s1` [Cmpd 29], the pKi in assay [1] was 6.33; in assay [2] (setting [6]), 5.95; in assay [3] it was 7.01; in assay [4] (setting [7]), 6.43. In addition, the “fold reduction in binding affinity against Efγ-CA” value in assay [2] (compared to AZM) is recorded as 3.5 fold. Moreover, the “fold reduction in binding affinity against Efα-CA” value in assay [4] (compared to AZM) is 6 fold and 7 fold.
Regarding `NS(=O)(=O)c1nnc(NC(=O)C2CC2)s1` [Cmpd 8], the pKi in assay [1] is 6.80; in assay [2] (setting [6]), 6.72; in assay [3], 7.61; in assay [4] (setting [7]), 7.44.
`CCCC(=O)Nc1nnc(S(N)(=O)=O)s1` [Cmpd 4]: the pKi in assay [2] (setting [8]) is 6.49; in assay [4] (setting [9]) it was 7.30.
For `NS(=O)(=O)c1nnc(NC(=O)CN2CCCCC2)s1` [Cmpd 23], the pKi was 7.27 in assay [1], 6.96 in assay [2] (setting [6]), 7.68 in assay [3] and 7.53 in assay [4] (setting [7]).
Consider `NS(=O)(=O)c1nnc(NC(=O)CC2CCCCC2)s1` [Cmpd 18], for which the pKi in assay [1] is 7.23; in assay [2] (setting [8]), 6.52; in assay [4] (setting [9]), 7.84.
A word on the MIC: it is the smallest concentration in the dilution series that meets the test's criterion for growth inhibition. Turning to `NS(=O)(=O)c1nnc(NC(=O)CCC2CCCCC2)s1` [Cmpd 20], the pKi is 6.02 in assay [1] and 6.46 in assay [2] (setting [8]). Also, in assay [5], the MIC was 0.007 µg/mL (≈ 0.022 µM).
For the molecule `NS(=O)(=O)c1nnc(NC(=O)CCc2ccccc2)s1` [Cmpd 21], in assay [1], the pKi was 6.07.
With `NS(=O)(=O)c1nnc(NCc2ccccc2)s1` [Cmpd 28], the negative-log Ki (pKi) in assay [1] is 5.79; in assay [2] (setting [6]) it was 6.55; in assay [4] (setting [7]) it was 6.79.
Take `NS(=O)(=O)c1nnc(NC(=O)C2CCCCC2)s1` [Cmpd 11]: the pKi was 7.20 in assay [1], 6.88 in assay [2] (setting [8]) and 7.31 in assay [4] (setting [9]).
Regarding `CC1(C(=O)Nc2nnc(S(N)(=O)=O)s2)CCCCC1` [Cmpd 12], the pKi is 6.93 in assay [1], 6.62 in assay [2] (setting [6]), 7.32 in assay [3] and 7.35 in assay [4] (setting [7]).
Take `NS(=O)(=O)c1nnc(NCC2CCCCC2)s1` [Cmpd 27]: the pKi in assay [1] is 5.95; in assay [2] (setting [8]), 6.40; in assay [4] (setting [9]), 6.93.
As for `CCC(=O)Nc1nnc(S(N)(=O)=O)s1` [Cmpd 1], the values for the pKi in assay [2] (setting [8]) and in assay [4] (setting [9]) were 6.60 and 7.43, respectively.
Consider `NS(=O)(=O)c1nnc(NC(=O)CN2CCCC2)s1` [Cmpd 22], for which the pKi in assay [1] is 7.19; in assay [2] (setting [6]), 7.03; in assay [3], 7.24; in assay [4] (setting [7]), 7.42.
`NS(=O)(=O)c1nnc(NC(=O)CCC2CCCC2)s1` [Cmpd 19]: the negative-log Ki (pKi) was 6.72 in assay [1], 6.61 in assay [2] (setting [6]), 7.99 in assay [3] and 7.41 in assay [4] (setting [7]).
For `CC(C)C(=O)Nc1nnc(S(N)(=O)=O)s1` [Cmpd 2], the pKi in assay [1] is 6.75; in assay [2] (setting [8]), 6.66; in assay [4] (setting [9]) it was 7.63.
For the molecule `NS(=O)(=O)c1nnc(NC(=O)c2ccccc2)s1` [Cmpd 14], the pKi is 6.96 in assay [1] and 7.02 in assay [2] (setting [8]).
With `CC(C)(C)CC(=O)Nc1nnc(S(N)(=O)=O)s1` [Cmpd 6], the pKi in assay [1] is 6.64; in assay [2] (setting [6]) it was 6.41; in assay [3], 8.14; in assay [4] (setting [7]) it was 7.16. Moreover, the MIC in assay [5] was 0.015 µg/mL (≈ 0.0539 µM).
`CC(C)(C)C(=O)Nc1nnc(S(N)(=O)=O)s1` [Cmpd 3]: the pKi in assay [1] is 6.78; in assay [2] (setting [8]), 6.36; in assay [4] (setting [9]), 7.53.
Take `CC1CCC(C(=O)Nc2nnc(S(N)(=O)=O)s2)CC1` (stereo not shown) [Cmpd 13]: the pKi is 6.82 in assay [1], 6.46 in assay [2] (setting [6]), 7.59 in assay [3] and 7.53 in assay [4] (setting [7]).
Consider `NS(=O)(=O)c1nnc(NC(=O)C2CCCC2)s1` [Cmpd 10], for which the negative-log Ki (pKi) was 7.12 in assay [1], 6.71 in assay [2] (setting [6]), 7.58 in assay [3] and 8.01 in assay [4] (setting [7]).
With `NS(=O)(=O)c1nnc(NC(=O)C2CCC2)s1` [Cmpd 9], the pKi in assay [1] was 6.90; in assay [2] (setting [6]), 6.54; in assay [3] it was 7.38; in assay [4] (setting [7]) it was 7.57.
Take `CCNc1nnc(S(N)(=O)=O)s1` [Cmpd 26]: the values for the pKi in assay [1], in assay [2] (setting [8]) and in assay [4] (setting [9]) were 6.15, 6.30 and 6.78, respectively.
In the case of `NS(=O)(=O)c1nnc(NC(=O)CC2CCC2)s1` [Cmpd 16], the pKi in assay [1] is 7.11; in assay [2] (setting [6]), 6.39; in assay [3], 8.31; in assay [4] (setting [7]), 7.74.
For `CC(C)CC(=O)Nc1nnc(S(N)(=O)=O)s1` [Cmpd 5], the pKi was 6.67 in assay [1], 6.55 in assay [2] (setting [6]), 7.25 in assay [3] and 7.20 in assay [4] (setting [7]).
On to `NS(=O)(=O)c1nnc(NC(=O)CC2CC2)s1` [Cmpd 15], for which the pKi in assay [1] is 6.43; in assay [2] (setting [6]), 6.51; in assay [3], 8.12; in assay [4] (setting [7]), 7.93.
For the molecule `NS(=O)(=O)c1nnc(NC(=O)CN2CCOCC2)s1` [Cmpd 24], the pKi in assay [2] (setting [8]) was 7.25.
For the molecule `CN1CCN(CC(=O)Nc2nnc(S(N)(=O)=O)s2)CC1` [Cmpd 25], the pKi in assay [2] (setting [8]) was 7.19; in assay [4] (setting [9]) it was 7.09.
In the case of `NS(=O)(=O)c1nnc(NC(=O)CC2CCCC2)s1` [Cmpd 17], the pKi in assay [1] is 7.06; in assay [2] (setting [6]), 6.63; in assay [3] it was 7.71; in assay [4] (setting [7]), 7.66. Also, in assay [4] (compared to matched molecular paired analog 10), the “fold reduced potency against Efα-CA” value was “about 2 fold”.
Regarding `CCCCCCC(=O)Nc1nnc(S(N)(=O)=O)s1` [Cmpd 7], the pKi in assay [1] is 6.48; in assay [2] (setting [6]), 6.20; in assay [3], 7.64; in assay [4] (setting [7]), 7.10. Further, the MIC in assay [5] was 0.015 µg/mL (≈ 0.0513 µM).
For the molecule `CC(=O)Nc1ccc(S(N)(=O)=O)cc1` [Cmpd 30], the pKi is 5.88 in assay [1], 6.28 in assay [2] (read-out: Ki Efγ-CA), 7.17 in assay [3] and 6.75 in assay [4] (read-out: Ki Efα-CA).
